Data taken from US8637536B2, “Pyrimidinone compounds for use in the treatment of diseases or conditions mediated by Lp-PLA2” (Glaxo Group Limited, priority 2010, dated 2014).
Like-named read-outs stand apart in the source and are kept apart here.

Key:
[1] = target: T1, recombinant human Lp-PLA2 (Homo sapiens, UniProt Q13093); test: Recombinant human Lp-PLA2 assay (rhLp-PLA2, PED6 assay); type: biochemical
T1 sequence (Q13093 22-441): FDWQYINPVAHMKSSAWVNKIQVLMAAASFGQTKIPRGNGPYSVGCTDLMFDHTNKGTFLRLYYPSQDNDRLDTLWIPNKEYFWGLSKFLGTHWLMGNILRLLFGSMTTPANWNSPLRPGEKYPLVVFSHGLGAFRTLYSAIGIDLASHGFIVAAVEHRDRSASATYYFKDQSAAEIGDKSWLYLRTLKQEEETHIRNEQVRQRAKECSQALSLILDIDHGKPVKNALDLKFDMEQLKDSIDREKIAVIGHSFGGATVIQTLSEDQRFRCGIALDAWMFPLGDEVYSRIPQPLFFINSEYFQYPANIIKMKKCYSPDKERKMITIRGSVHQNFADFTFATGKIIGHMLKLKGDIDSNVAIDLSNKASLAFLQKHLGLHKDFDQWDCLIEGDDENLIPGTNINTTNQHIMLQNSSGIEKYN
Source text: (1) Recombinant Human Lp-PLA2 Assay (rhLp-PLA2) (Also Referred to as “PED6” Assay)
N-((6-(2,4-dinitrophenyl)amino)-hexanoyl)-2-(4,4-difluoro-5,7-dimethyl-4-bora-3a,4a-diaza-s-indacene-3-pentanoyl)-1-hexadecanoyl-sn-glycero-3-phosphoethanolamine, triethylammonium salt (PED6) is a commercially available fluorescently-labelled phospholipid, which is commercially available from Molecular Probes. There is a quenching […] position and a Bodipy fluorescein (FL) group in the sn2 position.
The PED6 assay was run as an unquenched 10 μL assay. Compounds source plate was prepared by making 1:3 (by volume) serial dilution of the compounds into pure DMSO on 384-well microplate. […] 5 μL of recombinant human Lp-PLA2 enzyme (2 nM rhLp-PLA2 in assay buffer of 50 mM HEPES, pH7.4, 150 mM NaCl, 1 mM CHAPS) was added to each well of the plate with compounds. Plates were centrifuged for 10 sec at 500 rpm. […] Plates were centrifuged for 10 sec at 500 rpm. Plate was covered to protect from light and incubated for 20 min at room temperature. […] PIC50 data, curve and QC analysis was conducted by using XL fit module in Excel.

[2] = target: T2, Lp-PLA2 from plasma (pooled human plasma) (Homo sapiens, UniProt Q13093); test: Lp-PLA2 human plasma assay (Thio-PAF assay); type: biochemical; conditions: text thresholds, read-out: pIC50 values in the thio-PAF assay (converted)
T2 construct: 8 μL pooled human plasma; from tissue; host or cells: pooled human plasma
T2 sequence (Q13093 22-441): T1 sequence (Q13093 22-441)
Source text: (3) Lipoprotein-Associated Phospholipase A2 (Lp-PLA2) Human Plasma Assay (Also Referred to as “Thio-PAF Assay”)
The human plasma assay utilizes a thioester analog of PAF (phosphatidylcholine), where hydrolysis yields to the formation of a phospholipid containing a free thiol group. The amount of thiol is quantitated continuously by reacting with CPM (7-diethylamino-3-(4′-maleimidylphenyl)-4-methylcoumarin), a maleimide which increases in fluoresence after Michael addition of thiols. This assay may detect the activity of Lp-PLA2 from plasma, as determined by specific inhibition by Lp-PLA2 inhibitors.
The thio-PAF assay was run as a quenched 15 μL assay. Compounds source plate was prepared by making 1:3 (by volume) serial dilution of the compounds into pure DMSO on 384-well microplate. 0.01 μL of compounds on compound source plate were transferred to 384 well Greiner 784076 (black) low-volume plates by ECHO liquid dispenser. 8 μL pooled human plasma, which was previously aliquoted and frozen, was added. Plates were centrifuged for 10 sec at 500 rpm. After 30 minutes preincubation, 2 μL of substrate (2.5 mM thio-PAF, 3.2 mM NEM (N-ethylmaleimide) [made fresh daily in DMSO], and 32 μM CPM [from a DMSO stock] in assay buffer of 50 mM HEPES, pH7.4, 150 mM NaCl, 1 mM CHAPS was added to 384 well Greiner 784076 (black) low-volume plates by BRAVO liquid handling station. Plates were centrifuged for 10 sec at 500 rpm. Plate was covered to protect from light and incubated for 2 min at room temperature. Reaction was quenched with 5 μL of 5% aqueous trifluoroacetic acid (TFA). Plates were covered to protect from light and incubated for 40 min at room temperature. Plates were read at ex: 380/em: 485 using-Envision microplate reader. PIC50 data, curve and QC analysis was conducted by using XLFit module in Excel.

[3] = text thresholds, upper limit for pIC50 in this assay is 9.3, read-out: pIC50 values in the PED6 assay (converted)
[4] = upper limit for pIC50 obtained in this PED6 assay is 9.3, read-out: rhLp-PLA2 (PED6 assay) (pIC50) (converted)

IC50 [1, 3]	IC50 [1, 4]	IC50 [2]	Structure (SMILES)
≤ 0.01 µM	0.00794 µM	≤ 0.1 µM	COc1ncc(Cc2c[nH]c(NCCc3ccc(Oc4ccc(C(F)(F)F)cn4)c(C#N)c3)nc2=O)cn1 [E202, 5-{2-[5-(2-methoxy-pyrimidin-5-ylmethyl)-4-oxo-1,4-dihydro-pyrimidin-2-yl]-amino}-ethyl-2-(5-trifluoromethyl-pyridin-2-yloxy)benzonitrile]
≤ 0.001 µM	–	≤ 1 µM	COc1ncc(Cc2c[nH]c(SCc3ccc(Oc4ccc(Cl)c(C(F)(F)F)c4)c(C#N)c3)nc2=O)cn1 [E84, 2-{[4-chloro-3-(trifluoromethyl)phenyl]oxy}-5-{[(5-{[2-(methyloxy)-5-pyrimidinyl]methyl}-4-oxo-1,4-dihydro-2-pyrimidinyl)thio]methyl}benzonitrile]
≤ 0.001 µM	–	≤ 0.1 µM	COc1ncc(Cc2c[nH]c(OCCc3ccc(Oc4ccc(C)c(Cl)c4)cc3)nc2=O)cn1 [E151, 2-[(2-{4-[(3-chloro-4-methylphenyl)oxy]phenyl}ethyl)oxy]-5-{[2-(methyloxy)-5-pyrimidinyl]methyl}-4(1H)-pyrimidinone]
≤ 0.01 µM	0.00316 µM	≤ 1 µM	Cc1noc(Cc2c[nH]c(OCCc3ccc(Oc4ccc(Cl)c(C(F)(F)F)c4)cc3)nc2=O)n1 [E133, 2-{[2-(4-{[4-chloro-3-(trifluoromethyl)phenyl]oxy}phenyl)ethyl]oxy}-5-[(3-methyl-1,2,4-oxadiazol-5-yl)methyl]-4(1H)-pyrimidinone]
≤ 0.01 µM	0.00251 µM	≤ 0.1 µM	Cc1nnc(Cc2c[nH]c(OCCc3ccc(Oc4ccc(Cl)c(C(F)(F)F)c4)cc3)nc2=O)o1 [E134, 2-{[2-(4-{[4-chloro-3-(trifluoromethyl)phenyl]oxy}phenyl)ethyl]oxy}-5-[(5-methyl-1,3,4-oxadiazol-2-yl)methyl]-4(1H)-pyrimidinone]
≤ 0.01 µM	–	≤ 0.1 µM	O=c1nc(NCCc2ccc(Oc3ccc(C(F)(F)F)cc3)cc2)[nH]cc1Cc1cncnc1 [E204]
≤ 0.01 µM	–	≤ 0.1 µM	O=c1nc(NCCc2ccc(Oc3ccc(F)cc3)cc2)[nH]cc1Cc1cncnc1 [E188, 2-{2-[4-(4-Fluoro-phenoxy)-phenyl]-ethylamino}-5-pyrimidin-5-ylmethyl-1H-pyrimidin-4-one]
≤ 0.001 µM	–	≤ 0.1 µM	Cn1cc(Cc2cn(C)c(SCc3ccc(Oc4cc(Cl)ccn4)cc3)nc2=O)cn1 [E93, 2-[({4-[(4-chloro-2-pyridinyl)oxy]phenyl}methyl)thio]-1-methyl-5-[(1-methyl-1H-pyrazol-4-yl)methyl]-4(1H)-pyrimidinone]
≤ 0.001 µM	–	≤ 0.1 µM	COc1ncc(Cc2cn(C)c(SCc3ccc(Oc4ccc(Cl)c(C(F)(F)F)c4)cc3)nc2=O)cn1 [E75, 2-{[(4-{[4-chloro-3-(trifluoromethyl)phenyl]oxy}phenyl)methyl]thio}-1-methyl-5-{[2-(methyloxy)-5-pyrimidinyl]methyl}-4(1H)-pyrimidinone]
≤ 0.001 µM	–	≤ 0.1 µM	Cc1ccc(Oc2ccc(CCOc3nc(=O)c(Cc4cncnc4)c[nH]3)cc2)cc1Cl [E150, 2-[(2-{4-[(3-chloro-4-methylphenyl)oxy]phenyl}ethyl)oxy]-5-[pyrimidin-5-ylmethyl]-4(1H)-pyrimidinone]
≤ 0.01 µM	–	≤ 1 µM	COc1ncc(Cc2c[nH]c(OCCc3ccc(Oc4ccc(Cl)c(C(F)(F)F)n4)cc3)nc2=O)cn1 [E161, 2-(4-((5-chloro-6-(trifluoromethyl)pyridin-2-yl)oxy)phenethoxy)-5-((2-methoxypyrimidin-5-yl)methyl)pyrimidin-4(1H)-one]
–	0.00251 µM	≤ 1 µM	CCc1cn(CC)c(OCCc2ccc(Oc3ccc(Cl)c(C(F)(F)F)c3)cc2)nc1=O [E130, 2-{[2-(4-{[4-chloro-3-(trifluoromethyl)phenyl]oxy}phenyl)ethyl]oxy}-1,5-diethyl-4(1H)-pyrimidinone]
